# Test results reported in US20160212997A1, “AGRICULTURAL CHEMICALS” (REDAG CROP PROTECTION LTD, priority 2013, published 2016).
# Like-named read-outs stand apart in the source and are kept apart here.
# Legend:
# aphids, Myzus persicae = experiment: Potter tower spray on aphids, knockdown and mortality; assay type: in vivo
# Text: The compounds were screened for insecticidal efficacy against aphids, Myzus persicae, Cabbage moth, Mamestra brassicae, diamond black moths, Plutella xylostella, red spider mites, Tetranychus urticae, whitefly, Trialeurodes vaporariorum, in terms of knockdown and mortality.
# (§1) Myzus persicae, Cabbage moth, Mamestra brassicae, diamond back moths, Plutella xylostella, red spider mites, Tetranychus urticae, whitefly, Trialeurodes vaporariorum, were obtained from specified laboratory cultures. Mixed sex and age aphids and mites, moth larvae and whitefly scale infested leaves were used in the experiments. Environmental conditions were closely monitored and recorded and were within the optimal range of the target species.
# (§2) The compounds were screened at a range of five concentrations, diluted in DMSO. Some of the compounds were screened against aphids, whitefly and red spider mites and other compounds were screened against cabbage moth, and diamond black moths. A carrier only and an untreated control will also be conducted. Treatments were applied directly onto the insects within Petri dishes, using a potter tower.
# (§3) Twenty mites and ten aphids, scales and moth larvae were placed within a Petri dish, lined with a suitable leaf disc on a damp cotton wool pad. Scales were already on leaves. The Petri dishes were then sprayed using a potter tower. The number of knocked down and anthropods were assessed at 24 and 48 hours post treatment. Five replicates were be performed for each treatment, for each species.
# (§4) For Tables 2, 4, 5 and 6, the compounds were diluted in DMSO containing 1% v/v Tween 20™. For Tables 2, 4, 5 and 6, the caterpillars were a mixture of Mamestra brassicae and Lacanobia oleracea.
# [1] = system: caterpillars, a mixture of Mamestra brassicae and Lacanobia oleracea; experiment: Potter tower spray on caterpillars, knockdown and mortality; assay type: in vivo; conditions: for pest or weed control at 0.003125 % strength / pest or weed control at 0.0125 % strength / pest or weed control at 0.025 % strength / pest or weed control at 0.000125 % strength / pest or weed control at 0.00025 % strength / pest or weed control at 0.0005 % strength / pest or weed control at 0.001 % strength / pest or weed control at 0.002 % strength: read-out: Average of % corrected affected
# Text: as §1, §2, §3, §4
# [2] = Myzus persicae, 24 h, read-out: Average of % corrected affected
# [3] = Myzus persicae, 48 h, read-out: Average of % corrected affected
structure (smiles),measurement,setting,value
"O=C(Nc1ccc(-c2cncnc2)oc1=O)C1CC1 [Compound 26, N-[2-Oxo-6-(5-pyrimidyl)pyran-3-yl]cyclopropanecarboxamide]",Average of % corrected affected,"aphids, Myzus persicae; Aphids, 0.00625 % w/v, 24 hours post application",E (A percentage control of from 1 to 19 is indicated by the letter E)
same,Average of % corrected affected,"aphids, Myzus persicae; Aphids, 0.0125 % w/v, 48 hours post application",E (A percentage control of from 1 to 19 is indicated by the letter E)
same,Average of % corrected affected,"aphids, Myzus persicae; Aphids, 0.025 % w/v, 24 hours post application",E (A percentage control of from 1 to 19 is indicated by the letter E)
same,Average of % corrected affected,"aphids, Myzus persicae; Aphids, 0.025 % w/v, 48 hours post application",E (A percentage control of from 1 to 19 is indicated by the letter E)
same,Average of % corrected affected,"aphids, Myzus persicae; Aphids, 0.05 % w/v, 24 hours post application",E (A percentage control of from 1 to 19 is indicated by the letter E)
same,Average of % corrected affected,"aphids, Myzus persicae; Aphids, 0.05 % w/v, 48 hours post application",E (A percentage control of from 1 to 19 is indicated by the letter E)
same,pest or weed control at 0.00625 % strength,"aphids, Myzus persicae; Myzus persicae, 24 h, Aphids, 0.00625 % w/v, 24 hours post application, read-out: Average of % corrected affected",1 to 19%
same,pest or weed control at 0.025 % strength,"aphids, Myzus persicae; Myzus persicae, 24 h, Aphids, 0.025 % w/v, 24 hours post application, read-out: Average of % corrected affected",1 to 19%
same,pest or weed control at 0.05 % strength,"aphids, Myzus persicae; Myzus persicae, 24 h, Aphids, 0.05 % w/v, 24 hours post application, read-out: Average of % corrected affected",1 to 19%
same,pest or weed control at 0.0125 % strength,"aphids, Myzus persicae; Myzus persicae, 48 h, Aphids, 0.0125 % w/v, 48 hours post application, read-out: Average of % corrected affected",1 to 19%
same,pest or weed control at 0.05 % strength,"aphids, Myzus persicae; Myzus persicae, 48 h, Aphids, 0.05 % w/v, 48 hours post application, read-out: Average of % corrected affected",1 to 19%
same,control against caterpillars compared with reference compound 25,[1]; 0.05%,greater control
same,pest or weed control at 0.003125 % strength,"[1]; 24 h, Caterpillars, 0.003125 % w/v, 24 hours post application",1 to 19%
same,pest or weed control at 0.0125 % strength,"[1]; 24 h, Caterpillars, 0.0125 % w/v, 24 hours post application",1 to 19%
same,pest or weed control at 0.025 % strength,"[1]; 24 h, Caterpillars, 0.025 % w/v, 24 hours post application",1 to 19%
same,pest or weed control at 0.003125 % strength,"[1]; 48 h, Caterpillars, 0.003125 % w/v, 48 hours post application",1 to 19%
same,pest or weed control at 0.0125 % strength,"[1]; 48 h, Caterpillars, 0.0125 % w/v, 48 hours post application",1 to 19%
same,pest or weed control at 0.025 % strength,"[1]; 48 h, Caterpillars, 0.025 % w/v, 48 hours post application",1 to 19%
same,Average of % corrected affected,"[1]; Caterpillars, 0.003125 % w/v, 24 hours post application",E (A percentage control of from 1 to 19 is indicated by the letter E)
same,Average of % corrected affected,"[1]; Caterpillars, 0.003125 % w/v, 48 hours post application",E (A percentage control of from 1 to 19 is indicated by the letter E)
same,Average of % corrected affected,"[1]; Caterpillars, 0.0125 % w/v, 24 hours post application",E (A percentage control of from 1 to 19 is indicated by the letter E)
same,Average of % corrected affected,"[1]; Caterpillars, 0.0125 % w/v, 48 hours post application",E (A percentage control of from 1 to 19 is indicated by the letter E)
same,Average of % corrected affected,"[1]; Caterpillars, 0.025 % w/v, 24 hours post application",E (A percentage control of from 1 to 19 is indicated by the letter E)
same,Average of % corrected affected,"[1]; Caterpillars, 0.025 % w/v, 48 hours post application",E (A percentage control of from 1 to 19 is indicated by the letter E)
"Cc1cc(C2=NOC(c3cc(Cl)cc(Cl)c3)(C(F)(F)F)C2)ccc1SC1CCNC1=O (centres unmarked) [Compound 21, 3-[4-[5-(3,5-dichlorophenyl)-5-(trifluoromethyl)-4H-isoxazol-3-yl]-2-methyl-phenyl]sulfanylpyrrolidin-2-one]",pest or weed control at 0.000125 % strength,"aphids, Myzus persicae; [2]",20 to 39%
same,pest or weed control at 0.00025 % strength,"aphids, Myzus persicae; [2]",1 to 19%
same,pest or weed control at 0.0005 % strength,"aphids, Myzus persicae; [2]",1 to 19%
same,pest or weed control at 0.001 % strength,"aphids, Myzus persicae; [2]",1 to 19%
same,pest or weed control at 0.002 % strength,"aphids, Myzus persicae; [2]",1 to 19%
same,pest or weed control at 0.000125 % strength,"aphids, Myzus persicae; [3]",20 to 39%
same,pest or weed control at 0.00025 % strength,"aphids, Myzus persicae; [3]",1 to 19%
same,pest or weed control at 0.0005 % strength,"aphids, Myzus persicae; [3]",1 to 19%
same,pest or weed control at 0.001 % strength,"aphids, Myzus persicae; [3]",1 to 19%
same,pest or weed control at 0.002 % strength,"aphids, Myzus persicae; [3]",20 to 39%
same,pest or weed control at 0.000125 % strength,[1]; 24 h,1 to 19%
same,pest or weed control at 0.00025 % strength,[1]; 24 h,1 to 19%
same,pest or weed control at 0.0005 % strength,[1]; 24 h,0%
same,pest or weed control at 0.001 % strength,[1]; 24 h,1 to 19%
same,pest or weed control at 0.002 % strength,[1]; 24 h,1 to 19%
same,pest or weed control at 0.000125 % strength,[1]; 48 h,1 to 19%
same,pest or weed control at 0.00025 % strength,[1]; 48 h,1 to 19%
same,pest or weed control at 0.0005 % strength,[1]; 48 h,1 to 19%
same,pest or weed control at 0.001 % strength,[1]; 48 h,1 to 19%
same,pest or weed control at 0.002 % strength,[1]; 48 h,1 to 19%
"Cc1cc(C2=NOC(c3cc(Cl)cc(Cl)c3)(C(F)(F)F)C2)sc1SCC(=O)NCC(F)(F)F (centres unmarked) [Compound 20, 2-[[5-[5-(3,5-dichlorophenyl)-5-(trifluoromethyl)-4H-isoxazol-3-yl]-3-methyl-2-thienyl]sulfanyl]-N-(2,2,2-trifluoroethyl)acetamide]",control over aphids compared with reference compound 15,"aphids, Myzus persicae; 0.002% concentration",more control
same,pest or weed control at 0.000125 % strength,"aphids, Myzus persicae; [2]",1 to 19%
same,pest or weed control at 0.00025 % strength,"aphids, Myzus persicae; [2]",1 to 19%
same,pest or weed control at 0.0005 % strength,"aphids, Myzus persicae; [2]",1 to 19%
same,pest or weed control at 0.001 % strength,"aphids, Myzus persicae; [2]",1 to 19%
same,pest or weed control at 0.002 % strength,"aphids, Myzus persicae; [2]",1 to 19%
same,pest or weed control at 0.000125 % strength,"aphids, Myzus persicae; [3]",1 to 19%
same,pest or weed control at 0.00025 % strength,"aphids, Myzus persicae; [3]",1 to 19%
same,pest or weed control at 0.0005 % strength,"aphids, Myzus persicae; [3]",1 to 19%
same,pest or weed control at 0.001 % strength,"aphids, Myzus persicae; [3]",1 to 19%
same,pest or weed control at 0.002 % strength,"aphids, Myzus persicae; [3]",20 to 39%
same,control over caterpillars compared with reference compound 15,[1]; 0.002% concentration,more control
same,pest or weed control at 0.000125 % strength,[1]; 24 h,1 to 19%
same,pest or weed control at 0.00025 % strength,[1]; 24 h,1 to 19%
same,pest or weed control at 0.0005 % strength,[1]; 24 h,1 to 19%
same,pest or weed control at 0.001 % strength,[1]; 24 h,1 to 19%
same,pest or weed control at 0.002 % strength,[1]; 24 h,20 to 39%
same,pest or weed control at 0.000125 % strength,[1]; 48 h,1 to 19%
same,pest or weed control at 0.00025 % strength,[1]; 48 h,1 to 19%
same,pest or weed control at 0.0005 % strength,[1]; 48 h,1 to 19%
same,pest or weed control at 0.001 % strength,[1]; 48 h,1 to 19%
same,pest or weed control at 0.002 % strength,[1]; 48 h,20 to 39%
"Cc1cc(C2=NCC(c3cc(Cl)cc(Cl)c3)(C(F)(F)F)O2)ccc1SCC(=O)NCC(F)(F)F (centres unmarked) [Compound 18, 2-[4-[5-(3,5-dichlorophenyl)-5-(trifluoromethyl)-4H-oxazol-2-yl]-2-methyl-phenyl]sulfanyl-N-(2,2,2-trifluoroethyl)acetamide]",pest or weed control at 0.000125 % strength,"aphids, Myzus persicae; Myzus persicae, 24 h, Aphids, 0.000125 % w/v, 24 hours post application, read-out: Average of % corrected affected",1 to 19%
same,pest or weed control at 0.00025 % strength,"aphids, Myzus persicae; Myzus persicae, 24 h, Aphids, 0.00025 % w/v, 24 hours post application, read-out: Average of % corrected affected",1 to 19%
same,pest or weed control at 0.0005 % strength,"aphids, Myzus persicae; Myzus persicae, 24 h, Aphids, 0.0005 % w/v, 24 hours post application, read-out: Average of % corrected affected",1 to 19%
same,pest or weed control at 0.001 % strength,"aphids, Myzus persicae; Myzus persicae, 24 h, Aphids, 0.001 % w/v, 24 hours post application, read-out: Average of % corrected affected",1 to 19%
same,pest or weed control at 0.002 % strength,"aphids, Myzus persicae; Myzus persicae, 24 h, Aphids, 0.002 % w/v, 24 hours post application, read-out: Average of % corrected affected",1 to 19%
same,pest or weed control at 0.000125 % strength,"aphids, Myzus persicae; Myzus persicae, 48 h, Aphids, 0.000125 % w/v, 48 hours post application, read-out: Average of % corrected affected",1 to 19%
same,pest or weed control at 0.00025 % strength,"aphids, Myzus persicae; Myzus persicae, 48 h, Aphids, 0.00025 % w/v, 48 hours post application, read-out: Average of % corrected affected",1 to 19%
same,pest or weed control at 0.0005 % strength,"aphids, Myzus persicae; Myzus persicae, 48 h, Aphids, 0.0005 % w/v, 48 hours post application, read-out: Average of % corrected affected",1 to 19%
same,pest or weed control at 0.001 % strength,"aphids, Myzus persicae; Myzus persicae, 48 h, Aphids, 0.001 % w/v, 48 hours post application, read-out: Average of % corrected affected",1 to 19%
same,pest or weed control at 0.002 % strength,"aphids, Myzus persicae; Myzus persicae, 48 h, Aphids, 0.002 % w/v, 48 hours post application, read-out: Average of % corrected affected",1 to 19%
same,pest or weed control at 0.000125 % strength,"[1]; 24 h, Caterpillars, 0.000125 % w/v, 24 hours post application",1 to 19%
same,pest or weed control at 0.00025 % strength,"[1]; 24 h, Caterpillars, 0.00025 % w/v, 24 hours post application",0%
same,pest or weed control at 0.0005 % strength,"[1]; 24 h, Caterpillars, 0.0005 % w/v, 24 hours post application",1 to 19%
same,pest or weed control at 0.001 % strength,"[1]; 24 h, Caterpillars, 0.001 % w/v, 24 hours post application",1 to 19%
same,pest or weed control at 0.002 % strength,"[1]; 24 h, Caterpillars, 0.002 % w/v, 24 hours post application",1 to 19%
same,pest or weed control at 0.000125 % strength,"[1]; 48 h, Caterpillars, 0.000125 % w/v, 48 hours post application",1 to 19%
same,pest or weed control at 0.00025 % strength,"[1]; 48 h, Caterpillars, 0.00025 % w/v, 48 hours post application",1 to 19%
same,pest or weed control at 0.0005 % strength,"[1]; 48 h, Caterpillars, 0.0005 % w/v, 48 hours post application",1 to 19%
same,pest or weed control at 0.001 % strength,"[1]; 48 h, Caterpillars, 0.001 % w/v, 48 hours post application",1 to 19%
same,pest or weed control at 0.002 % strength,"[1]; 48 h, Caterpillars, 0.002 % w/v, 48 hours post application",0%
